Tested on: Lacrimal gland inflammation-induced dry eye
Test: Lacrimal gland inflammation-induced dry eye in rabbits (corneal staining, tear breakup time)
Type: in vivo
Settings: rabbit, topical ocular BID, percent concentration 1
Source text: A more detailed description of the assay used herein may be found in Naglehout, T J et al. 2005, “Preservation of Tear Film Integrity and Inhibition of Corneal Injury by Dexamethasone in a Rabbit Model of Lacrimal Gland Inflammation-Induced Dry Eye,” J. Ocular Pharm. Ther., 21:2. 139-148, the disclosure of which is hereby incorporated by reference as if written herein in its entirety. Rabbits (n=4/group) were randomized into treatment groups and dosed topically BID with maxidex vehicle or test drug beginning one day prior to initiation of dry eye. Each rabbit received bilateral lacrimal gland injections of saline or ConA (300 μg/30 μl) and topical ocular dosing was continued BID throughout the study. Desiccation was initiated 1-2 hours following lacrimal gland injection by placing conscious rabbits in the environmental chamber (10-15% humidity/72° F.). […] Absorbance of the extracted dye was determined at 660 nm. TBUT was quantified in a separate group of treated animals. TBUT was determined by instilling 5 μL sodium fluorescein into the cul de sac and manually blinking the lids to distribute the fluorescein within the tear film. Under slit lamp observation, the eye was held open and the time whereby one or more black spots or streaks appeared in the precorneal tear film was recorded. […]

COc1ccc2c(Nc3c(Cl)cncc3Cl)cc(=O)[nH]c2c1OC1CCCC1 [Example 1, 8-(Cyclopentyloxy)-4-(3,5-dichloropyridin-4-ylamino)-7-methoxyquinolin-2(1H)-one]
Activity at Percent Concentration Tested 1: Inac-

Source: US8258154B2, “Bicyclic heteroaryl inhibitors of PDE4” (Kalypsys Inc., priority 2006, dated 2012)
